The structures appear in SMILES notation. Read-outs that look alike come from different tables or passages of the source.

In general, IC50 refers to the point on the concentration scale where inhibition reaches its midpoint.

For series [1], the system named is Colon cancer patient tumor cells. As to the kind of experiment: FMCA, patient tumor samples, colon cancer. It counts as cell-based. The following applies: Homo sapiens. From the text:
(§1) Cell culture. Patient tumor samples (98) and preparations (4) of normal peripheral blood mononuclear cells (PBMC), detailed in Table 1, were used to determine the activity of VLX50 and, for comparison, six other cytotoxic drugs chosen to represent different mechanistic classes.
(§2) The tumor samples were obtained by bone marrow/peripheral blood sampling, routine surgery or diagnostic biopsy. Leukemic cells and PBMCs were isolated by 1.077 g ml-1 Ficoll-Paque centrifugation (Larsson et al., 1992). Tumor tissue from solid tumor samples was minced into small pieces and tumor cells were isolated by collagenase dispersion followed by Percoll density gradient centrifugation (Csoka et al., 1994). […] Cell viability was determined by trypan blue exclusion test and the proportion of tumor cells in the preparation was judged by inspection of May-Grunvald-Giemsa stained cytospin slides (FIG. 1a). […]
(§3) Fluorometric Microculture Cytotoxicity Assay. The Fluorometric Microculture Cytotoxicity Assay, FMCA, described in detail previously (Lindhagen et al., 2008), is based on measurement of fluorescence generated from hydrolysis of fluorescein diacetate (FDA) to fluorescein by cells with intact plasma membranes. […] Quality criteria for a successful assay included a mean coefficient of variation of less than 30% in the control and a fluorescence signal in control wells of more than 5 times the blank. […]

In series [2] the test system is CML (Chronic Myelocytic Leukemia) patient tumor cells. As to the kind of experiment: FMCA, patient tumor samples, CML. Format: cell-based. The following applies: Homo sapiens.
From the text: as §1, §2, §3

Series [3] is described as follows: Weight gain and hematological parameters of treated mice. It counts as in vivo, NMRI male mice. The following applies: single dose 760 μg/mouse s.c. How it is done:
In vivo studies. Cells from two ovarian carcinoma patients and the cell line CEM were cultured inside semi-permeable polyvinylidene fluoride fibers and assessed by the hollow fiber assay (Friberg et al., 2005; Jonsson et al., 2000). The fibers were implanted subcutaneously into NMRI male mice (Scanbur, Sollentuna Sweden), which were treated with a single dose (0.76 mg/mouse) of VLX50 subcutaneously, or vehicle only (n=animals/group). Fibers were retrieved after 6 days and cell density evaluated (FIG. 3a) using the MTT (3-[4,5-dimethylthiazol-2-yl]-2,5-diphenyltetrazolium bromide)-assay (Alley et al. 1988). The method is based on the conversion of MTT to blue formazan crystals by living cells. The formazan was extracted by DMSO as previously described (Jonsson et al. 2000), and optical density (OD) read at 570 nm. Cell density for each fiber on retrieval day was expressed as net growth, defined as (OD retrieval day—OD implantation day)/OD implantation day, i.e. the percent change in cell density in the fibers during the 6 days of in vivo experiment. The animals were observed regarding behavior and weight gain throughout the experiment. Blood samples (200 μl) were obtained through the orbital plexus after anesthetization with isofluran just before euthanasia, and analyzed for hematological parameters. Four animals were caged per cage and fed a commercial diet (Lactamin AB, Sweden), water being given ad libitum.
In vivo activity in PHTC cultures of ovarian carcinoma. Activity in vivo was determined in hollow fiber cultures of PHTC from ovarian carcinoma patients subcutaneously implanted in mice (FIG. 3a; n=8 each in test and control groups). […] There was no difference in WBC, RBC, and hemoglobin values (FIG. 3c).

The test system of series [4] is AML (Acute Myelocytic Leukemia) patient tumor cells. Briefly: FMCA, patient tumor samples, AML. Format: cell-based. The following applies: Homo sapiens.
From the text: as §1, §2, §3

A further series concerns MCF-7 cell cultures. As to the kind of experiment: Effect of extracellular Fe on VLX50 induced cell death. Format: cell-based. The following applies: MCF-7, extracellular iron added.
The test system of series [5] is Ovarian carcinoma patient tumor cells (PHTC). As to the kind of experiment: FMCA, patient tumor samples, ovarian carcinoma. It counts as cell-based, human.
From the text: as §1
The tumor samples were obtained by bone marrow/peripheral blood sampling, routine surgery or diagnostic biopsy. Leukemic cells and PBMCs were isolated by 1.077 g ml-1 Ficoll-Paque centrifugation (Larsson et al., 1992). Tumor tissue from solid tumor samples was minced into small pieces and tumor cells were isolated by collagenase dispersion followed by Percoll density gradient centrifugation (Csoka et al., 1994). The sampling of primary tumor cells was approved by the local ethics committee at Uppsala University Hospital. Cell viability was determined by trypan blue exclusion test and the proportion of tumor cells in the preparation was judged by inspection of May-Grunvald-Giemsa stained cytospin slides (FIG. 1a). All samples used in this study contained more than 70% tumor cells.
Fluorometric Microculture Cytotoxicity Assay. The Fluorometric Microculture Cytotoxicity Assay, FMCA, described in detail previously (Lindhagen et al., 2008), is based on measurement of fluorescence generated from hydrolysis of fluorescein diacetate (FDA) to fluorescein by cells with intact plasma membranes. […] The plates were incubated for 72 h and then transferred to an integrated HTS SAIGAN Core System consisting of an ORCA robot (Beckman Coulter) with CO2 incubator (Cytomat 2C, Kendro, Sollentuna, Sweden), dispensor module (Multidrop 384, Titertek, Huntsville, Ala.), washer module (ELx 405, Bio-Tek Instruments Inc), delidding station, plate hotels, barcode reader (Beckman Coulter), liquid handler (Biomek 2000, Beckman Coulter) and a multipurpose reader (FLUOstar Optima, BMG Labtech GmbH, Offenburg, Germany) for automated FMCA. Quality criteria for a successful assay included a mean coefficient of variation of less than 30% in the control and a fluorescence signal in control wells of more than 5 times the blank. […]

Consider `COCCCNC(=S)N/N=C\c1ccccn1` [VLX50, N1-(3-methoxypropyl)-2-(pyridylmethylidene)-hydrazine-1-carbothioamide], for which the IC50 in series [1] (n=6, 72 h FMCA, read-out: Median IC50) was more than 40 µM; in series [1] (range over n=6 samples, read-out: IC50 Range), 0.49 to 40 µM; in series [2] (n=3, 72 h FMCA, read-out: Median IC50), 5.13 µM; in series [2] (range over n=3 samples, read-out: IC50 Range), 2.1 to 6.42 µM; in series [4] (n=10, 72 h FMCA, read-out: Median IC50), 5.35 µM; in series [4] (range over n=10 samples, read-out: IC50 Range), 0.67 to 40 µM. Further, the half-maximal inhibitory concentration (IC50) is less than 5 µM in series [5] (Homo sapiens, 72 h, n=14, 72 h FMCA, read-out: Median IC50); 0.26 to 40 µM in series [5] (Homo sapiens, range over n=14 samples, read-out: IC50 Range); 3.46 µM in series [5] (n=14, 72 h FMCA, read-out: Median IC50). In addition, the Hemoglobin values result in series [3] is on record as “no difference”. Moreover, the RBC entry in series [3] is “no difference”. Besides, the WBC entry in series [3] is reported as “no difference”. The Platelet counts result in series [3] (P<0.05) was “significant decrease”. Also, the “Weight gain compared to the control group” value in series [3] (P<0.05) was “small but significant reduction”. In the series on MCF-7 cell cultures, the “VLX50 activity on adding extracellular iron” value is reported as “dose-dependent decrease”.

The values above are taken from patent publication US20120309798A1, “Tumour Treatment Agents and Method” (Vivolux AB, priority 2009, published 2012).
